Values quoted from earlier work in patent US6958144B2, “Methods of whitening teeth” (Britesmile Development, Inc., priority 1995, dated 2005).

Settings: 10% carbamide peroxide solution, background statement

Compound: NC(N)=O.OO [carbamide peroxide]
- equilibrium pH: approximately 3.45
